US20240148821A1, “PHARMACEUTICAL USE OF CYCLIC PEPTIDE COMPOUND” (CHUGAI SEIYAKU KABUSHIKI KAISHA, priority 2021, published 2024)
Bridge positions count the residues as written; N and C are the ends. Square brackets hold non-standard residues; d marks the D form. Peptide text beside a SMILES is read from it. * marks the point of attachment. hPhe(3-Cl-4-CF3) = N[C@@H](CCc1ccc(C(F)(F)F)c(Cl)c1)C(=O)O; NMePhe(4-CF3) = CN[C@@H](Cc1ccc(C(F)(F)F)cc1)C(=O)O; hPhe(4-CF3) = N[C@@H](CCc1ccc(C(F)(F)F)cc1)C(=O)O; NMePhe(4-CN) = CN[C@@H](Cc1ccc(C#N)cc1)C(=O)O; 3Oxa8azabicyclo(3.2.1)octane = C1CC2COCC1N2*; NMePhe(4-Cl) = CN[C@@H](Cc1ccc(Cl)cc1)C(=O)O; NMePhe(4-Me) = CN[C@@H](Cc1ccc(C)cc1)C(=O)O; NMeGly(cPent) = CN[C@H](C(=O)O)C1CCCC1; Phe(3-I) = N[C@@H](Cc1cccc(I)c1)C(=O)O; Phe(2-F) = N[C@@H](Cc1ccccc1F)C(=O)O; NMe3Pal = CN[C@@H](Cc1cccnc1)C(=O)O; NMeCha = CN[C@@H](CC1CCCCC1)C(=O)O; NMeChg = CN[C@H](C(=O)O)C1CCCCC1; NMeI = CC[C@H](C)[C@H](NC)C(=O)O; Gly(cPr) = N[C@H](C(=O)O)C1CC1; NMeD = CN[C@@H](CC(=O)O)C(=O)O; NMeL = CN[C@@H](CC(C)C)C(=O)O; NMePra = C#CC[C@H](NC)C(=O)O; NMeV = CN[C@H](C(=O)O)C(C)C; d(β3hA) = C[C@@H](N)CC(=O)O; dPip = O=C(O)[C@H]1CCCCN1; NMeA = CN[C@@H](C)C(=O)O; NMeAib = CNC(C)(C)C(=O)O; Piperidide = C1CCN(*)CC1; Ac5c = NC1(C(=O)O)CCCC1; Aze = O=C(O)[C@@H]1CCN1; NcPrGly = O=C(O)CNC1CC1; Sar = CNCC(=O)O

The molecules below were run on Human pancreatic cancer cell line AsPC-1 (G12D mutation Kras) (assay: AsPC-1 cell growth inhibition (AsPC-1 CGI)). Conditions: read-out: AsPC-1 cell growth inhibition, 50% growth inhibitory concentration (IC50 value); 96 hours, CellTiter-Glo, values classified in ranges.
Format: cell-based
Description: Test compounds were serially dilated with dimethyl sulfoxide, and 200 nL was then dispensed to a U-bottom 96-well plate using Labcyte Echo. […] The cell suspension was dispensed to a. plate containing a test compound at 100 μL per well and incubated at 37° C. in a 5% carbon dioxide gas incubator. 96 hours later, 80 μL of CellTiter-Glo (Promega) was added to each well and fluorescence was measured.

`CC(C)C[C@H]1C(=O)N[C@@H](C2CC2)C(=O)N(C)CC(=O)N(C)CC(=O)N(C)[C@@H](CC2CCCCC2)C(=O)N(C)CC(=O)N[C@@H](CCc2ccc(C(F)(F)F)c(Cl)c2)C(=O)N2CCC[C@H]2C(=O)NC2(CCCC2)C(=O)N(C)[C@@H](C(C)C)C(=O)N(C)[C@H](C(=O)N2CCCCC2)CC(=O)N1C` [Compound 533] ([NMeL][Gly(cPr)][Sar][Sar][NMeCha][Sar][hPhe(3-Cl-4-CF3)]P[Ac5c][NMeV][NMeD]-Piperidide; lactam N-11) and `C#CC[C@H]1C(=O)N(C)CC(=O)N[C@@H](CCc2ccc(C(F)(F)F)c(Cl)c2)C(=O)N2CCC[C@H]2C(=O)NC2(CCCC2)C(=O)N(C)[C@@H](C2CCCCC2)C(=O)N(C)[C@H](C(=O)N2CCCCC2)CC(=O)N(C)[C@@H](CC(C)C)C(=O)N[C@@H]([C@@H](C)CC)C(=O)N(C)CC(=O)N(C)CC(=O)N1C` [Compound 554] ([NMeL]I[Sar][Sar][NMePra][Sar][hPhe(3-Cl-4-CF3)]P[Ac5c][NMeChg][NMeD]-Piperidide; lactam N-11) cannot be ordered by IC50: over 0.5 µM for the first, over 0.5 µM for the second.

`CC[C@H](C)[C@@H]1NC(=O)[C@H](C(C)C)N(C)C(=O)C[C@@H](C)NC(=O)[C@H](CC(C)C)N(C)C(=O)C2(CCCC2)NC(=O)[C@H](CC(C)C)N(C)C(=O)[C@H](CCc2ccc(C(F)(F)F)cc2)NC(=O)CN(C)C(=O)[C@H](Cc2ccc(Cl)cc2)N(C)C(=O)CN(C)C(=O)[C@@H]2CCN2C1=O` [Compound 538] (cyclo([Ac5c][NMeL][d(β3hA)][NMeV]I[Aze][Sar][NMePhe(4-Cl)][Sar][hPhe(4-CF3)][NMeL])) and `CC[C@H](C)[C@@H]1NC(=O)[C@H](CC(C)C)N(C)C(=O)C[C@@H](C)NC(=O)[C@H](C(C)C)N(C)C(=O)C2(CCCC2)NC(=O)[C@@H]2CCCN2C(=O)[C@H](CCc2ccc(C(F)(F)F)c(Cl)c2)NC(=O)CN(C)C(=O)[C@H](Cc2ccc(C#N)cc2)N(C)C(=O)CN(C)C(=O)CN(C)C1=O` [Compound 564] (cyclo([Ac5c][NMeV][d(β3hA)][NMeL]I[Sar][Sar][NMePhe(4-CN)][Sar][hPhe(3-Cl-4-CF3)]P)) cannot be ordered by IC50: over 0.5 µM for the first, over 0.5 µM for the second.

`CC[C@H](C)[C@@H]1NC(=O)[C@H](CC(C)C)N(C)C(=O)C[C@@H](C)NC(=O)[C@H](C(C)C)N(C)C(=O)C2(CCCC2)NC(=O)[C@@H]2CCCN2C(=O)[C@H](CCc2ccc(C(F)(F)F)c(Cl)c2)NC(=O)CN(C)C(=O)[C@H](CC2CCCCC2)N(C)C(=O)CN(C)C(=O)CN(C2CC2)C1=O` [Compound 542] (cyclo([Ac5c][NMeV][d(β3hA)][NMeL]I[NcPrGly][Sar][NMeCha][Sar][hPhe(3-Cl-4-CF3)]P)) and `CC[C@H](C)[C@@H]1NC(=O)[C@H](C)N(C)C(=O)C[C@@H](C)NC(=O)[C@H](C2CCCC2)N(C)C(=O)C2(CCCC2)NC(=O)[C@@H]2CCCN2C(=O)[C@H](CCc2ccc(C(F)(F)F)c(Cl)c2)NC(=O)CN(C)C(=O)[C@H](Cc2ccc(Cl)cc2)N(C)C(=O)[C@@H]2CCCN2C(=O)CN(C)C1=O` [Compound 549] (cyclo([Ac5c][NMeGly(cPent)][d(β3hA)][NMeA]I[Sar]P[NMePhe(4-Cl)][Sar][hPhe(3-Cl-4-CF3)]P)) cannot be ordered by IC50: over 0.5 µM for the first, over 0.5 µM for the second.

First: CC[C@H](C)[C@@H]1NC(=O)[C@H](CC(C)C)N(C)C(=O)C[C@@H](C(=O)N2C3CCC2COC3)N(C)C(=O)[C@H]([C@@H](C)CC)N(C)C(=O)C2(CCCC2)NC(=O)[C@@H]2CCCN2C(=O)[C@H](CCc2ccc(C(F)(F)F)c(Cl)c2)NC(=O)CN(C)C(=O)[C@H](Cc2ccc(C(F)(F)F)cc2)N(C)C(=O)[C@@H]2CCN2C(=O)[C@H](C)N(C)C1=O [Compound 545] ([NMeL]I[NMeA][Aze][NMePhe(4-CF3)][Sar][hPhe(3-Cl-4-CF3)]P[Ac5c][NMeI][NMeD]-{3Oxa8azabicyclo(3.2.1)octane}; lactam N-11)
Second: CC[C@H](C)[C@@H]1NC(=O)[C@H](CC(C)C)N(C)C(=O)C[C@@H](C(=O)N(C)C)N(C)C(=O)[C@H]([C@@H](C)CC)N(C)C(=O)[C@H](C)NC(=O)[C@H](Cc2cccnc2)N(C)C(=O)[C@H](CCc2ccc(C(F)(F)F)c(Cl)c2)NC(=O)CN(C)C(=O)[C@H](Cc2ccc(C)cc2)N(C)C(=O)[C@@H]2CCN2C(=O)[C@H](C)N(C)C1=O [Compound 557] ([NMeL]I[NMeA][Aze][NMePhe(4-Me)][Sar][hPhe(3-Cl-4-CF3)][NMe3Pal]A[NMeI][NMeD]-NMe2; lactam N-11)
The IC50 of the first is lower: at most 0.02 µM for the first, over 0.5 µM for the second.

`CC[C@H](C)[C@@H]1NC(=O)[C@H](C)N(C)C(=O)C[C@@H](C(=O)N2CCCCC2)N(C)C(=O)[C@H](C(C)C)N(C)C(=O)C2(CCCC2)NC(=O)[C@@H]2CCCN2C(=O)[C@H](CCc2ccc(C(F)(F)F)c(Cl)c2)NC(=O)[C@H]2CCCCN2C(=O)[C@H](CC2CCCCC2)N(C)C(=O)[C@@H]2CCN2C(=O)CN(C)C1=O` [Compound 553] ([NMeA]I[Sar][Aze][NMeCha][dPip][hPhe(3-Cl-4-CF3)]P[Ac5c][NMeV][NMeD]-Piperidide; lactam N-11) and `CC[C@H](C)[C@@H]1NC(=O)[C@H](CC(C)C)N(C)C(=O)C[C@@H](C(=O)N2CCCCC2)N(C)C(=O)[C@H](CC(C)C)NC(=O)C(C)(C)N(C)C(=O)[C@H](Cc2ccccc2F)NC(=O)[C@H](Cc2cccc(I)c2)NC(=O)CN(C)C(=O)[C@H](Cc2ccc(C)cc2)N(C)C(=O)CN(C)C(=O)CN(C)C1=O` [Compound 556] ([NMeL]I[Sar][Sar][NMePhe(4-Me)][Sar][Phe(3-I)][Phe(2-F)][NMeAib]L[NMeD]-Piperidide; lactam N-11) cannot be ordered by IC50: over 0.5 µM for the first, over 0.5 µM for the second.
